This passage reports RP-LC retention time results from the METLIN SMRT retention time set (Domingo-Almenara et al. 2019).

The structures appear in SMILES notation.

The nature of the data set: gradient 5% acetonitrile 3 min, to 50% in 2 min, to 85% in 15 min, held 3 min, 100 µL/min. The settings on record: column: Zorbax Extend-C18 2.1 x 50 mm; eluents: water / acetonitrile, 0.1% formic acid. In outline:
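Each retention time is based on an adduct peak selected computationally and verified by manual inspection. Measurements used HPLC–quadrupole time-of-flight mass spectrometry in positive and negative ionization mode on mixtures of ~100 pure standards. Chromatography ran on a Zorbax Extend-C18 column (2.1 × 50 mm, 1.8 μm) at 100 μL/min with water and acetonitrile, each containing 0.1% formic acid, and dead and dwell volumes of 40 μL and 900 μL.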
`O=C(CN1C(=O)C2CCCCN2c2ccc(C(=O)N3CCCC3)cc21)NCCC1=CCCCC1` (stereo not given) yielded an RP-LC retention time of 914 s.

As for `COc1ccc(CCNC[C@H](O)c2ccc(O)cc2)cc1OC`, the RP-LC retention time was 656 s. The same measure for `CNC(=O)CCC[C@@H]1[C@H]2CCCN3CCC[C@@H](CN1C(=O)CC(C)C)[C@@H]23`: 568 s; for `COCc1cc2nn(CC(=O)Nc3ccc(OC)c(F)c3)c(=O)n2c(-c2ccccc2)n1`: 797 s; for `COc1ccc(-c2csc(NC(=O)CS(=O)(=O)c3ccc(Cl)cc3)n2)c(OC)c1`: 1020 s.

Consider `CCC1CCCCN1CCCNC(=O)C1CCCN(c2ncnc3c2nc2n3CCCCC2)C1` (stereo not given), for which the RP-LC retention time amounted to 604 s. The same measure for `O=C(O)[C@H]1O[C@H](Oc2cc3oc(-c4ccccc4)cc(=O)c3c(O)c2O)[C@H](O)[C@@H](O)[C@@H]1O`: 658 s. In the case of `Cc1cc(C)cc(C(=O)NC2CCN(c3cc(-c4ccccc4)[nH]n3)C2)c1` (stereo not given), the RP-LC retention time was 770 s. The same measure for `Cc1cc2nc(C(=O)Nc3cccc(F)c3)cc(C)n2n1`: 970 s; for `O=C(CN1CCN(Cc2ccccc2)C1=O)NC1CC1`: 641 s.

`COc1ccccc1CCC(=O)NC1(c2nc(-c3cccnc3)no2)CCCCC1` gave an RP-LC retention time of 956 s. The same measure for `O=C(CCc1ccccc1)N1CCOc2ccccc2C1`: 861 s; for `CCCN1CCN(C(=O)CN2CCN(Cc3ccccc3)C2=O)CC1`: 578 s. The same measure for `COC(=O)c1cccc(NC(=O)c2nc(C)oc2C)c1`: 840 s. The same measure for `O=C(CSc1nnc2c3sc(N4CCCC4)nc3ncn12)Nc1ccc(Cl)cc1`: 855 s; for `O=S(=O)(c1ccc(Cl)c(-c2nnc(-c3ccccc3)o2)c1)N1CCCCC1`: 1130 s. `Cc1nn(-c2ccc(C(=O)NCCCN3CCCC3=O)cc2)c2c1C(=O)CC(C)(C)C2` registered an RP-LC retention time of 670 s.

Take `COc1cccc(OC)c1C(=O)Nc1cc2c(cc1S(=O)(=O)c1ccc(F)cc1)n(C)c(=O)n2C`: the RP-LC retention time was determined as 852 s.

For the compound `Cc1cc(=O)n(CC(=O)Nc2ccc(F)c(F)c2)cn1`, the RP-LC retention time was 620 s. The same measure for `Cc1ccc(CS(=O)(=O)N2CCC(CN3CCCCCC3)CC2)cc1C`: 723 s; for `CCOC(=O)c1cccc(NC(=O)NC2CCN(c3ccc(F)cc3)C2=O)c1` (stereo not given): 824 s. The same measure for `O=C(Cc1nnc2c(-c3nc(C4CC4)no3)cccn12)NC1CCCCCC1`: 720 s; for `CCc1noc(NC(C)=O)c1-c1ccc(OC)c(S(=O)(=O)Nc2cc(C)ccc2OC)c1`: 854 s. The same measure for `Cc1cc(=O)n(CC(=O)Nc2ccccc2)c(N)n1`: 580 s; for `CCC(=O)Nc1cc(C(=O)NCc2ccc(N3CCOCC3)cc2)c2ccc(C)nc2c1`: 585 s; for `O=C(Cc1csc(NC(=O)c2cnccn2)n1)Nc1cccc(C(F)(F)F)c1`: 777 s. Turning to `Cc1sc(C)c(S(=O)(=O)NC2CCCCC2)c1-c1cc(C(F)(F)F)on1`, the RP-LC retention time is 1200 s. The same measure for `O=C(CN1CCN(c2ccc(F)c(F)c2)C1=O)NC1CCSC1=O` (stereo not given): 678 s. The same measure for `COc1cccc(CNC(=O)Nc2cc3c(cc2N2CCOCC2)n(C)c(=O)n3C)c1`: 723 s; for `Cc1nn(CC(=O)NCc2ccco2)c(=O)c2nn(-c3ccccc3)c(C)c12`: 732 s. In the case of `O=C(NCCc1c[nH]c2ccc(Cl)cc12)Nc1ccccc1`, the RP-LC retention time was found to be 879 s. The same measure for `Cn1c(=O)c2c(ncn2CC(=O)N2CCCn3nc(-c4ccc(C(F)(F)F)cc4)cc3C2)n(C)c1=O`: 763 s. The same measure for `CCN1C(=O)c2ccccc2Oc2ccc(C(=O)N3CCN(c4cc(C)ccc4C)CC3)cc21`: 1190 s; for `CCCN1CCN(C(=O)CN2C(=O)C(C)(C)c3cc(C)ccc32)CC1`: 624 s. The same measure for `Cc1nn(CCC(=O)NCCC2=CCCCC2)c(=O)c2nn(-c3ccccc3)c(C)c12`: 867 s; for `Cc1nnc(-c2ccc3ccn(CC(=O)N4CCN(c5cccc(C)c5C)CC4)c3c2)o1`: 997 s; for `Cc1cc2nn(CC(=O)N3CCc4ccccc43)c(=O)n2c(Nc2ccccc2C)n1`: 1080 s. `Cc1ccc(C)c(NC(=O)N2C[C@@H](F)C[C@H]2C(=O)N2CCCCC2)c1` showed an RP-LC retention time of 730 s.

In turn, `CCCNC(=O)NC1CCN(c2nc3cccnc3n(Cc3ccc(C)cc3)c2=O)CC1` gave an RP-LC retention time of 1010 s.

The compound `O=C(NCCc1ccccc1)N1CCCn2nc(-c3ccncc3)cc2C1` showed an RP-LC retention time of 583 s. The same measure for `Cc1c(C(=O)N(C)C)cc(-c2ccccc2)n1C`: 812 s; for `COc1ccccc1CCNC(=O)C1CN(C(=O)c2ccc(F)c(F)c2)C1`: 731 s; for `Cc1nc2ncnn2c(C)c1CCC(=O)N1CCC(Cc2ccccc2)CC1`: 815 s. The same measure for `Cc1noc(C)c1CC(=O)N1CC(F)(F)C[C@H]1COc1ccc2c(c1)CCC2`: 1060 s; for `Cc1ccc(NC(=O)Cn2nc3n(c2=O)CCCCC3)cc1C`: 717 s. The same measure for `CC(C)Cn1cc(C(=O)O)c(S(=O)(=O)N2CCN(C(C)C)CC2)n1`: 609 s; for `Cc1ccc(Cl)cc1NC(=O)CSc1nc(N2CCCCC2)nc2ccccc12`: 849 s; for `O=S(=O)(c1ccc2nc(N3CCN(C4CCCCC4)CC3)ccc2c1)N1CCCCC1`: 734 s.

For `O=S(=O)(NCC1(c2ccc(F)cc2)CC1)c1ccc2c(c1)OCCO2`, the RP-LC retention time is 918 s. The same measure for `CC(NC(=O)c1cccc2c1CCN2C(=O)Nc1ccccc1)c1cccnc1` (stereo not given): 643 s. With `CCS(=O)(=O)Nc1ccc(C2(C(=O)N3CCCC(C)C3)CCCCC2)cc1` (stereo not given), the RP-LC retention time is 1010 s. `O=C(Cn1cccc1-c1nc(-c2ccc(Cl)cc2)cs1)NCc1ccccn1`: the RP-LC retention time was found to be 795 s. The compound `COc1ccc(NC(=O)c2[nH]c3cc(C)sc3c2CN(C)C)cc1` yielded an RP-LC retention time of 666 s. The same measure for `CC(C)(C)C(=O)N1CCC(C(=O)Nc2nnc(CCCc3ccccc3)s2)CC1`: 893 s; for `CCOc1ccc(C2Cn3nnc(-c4nc(-c5ccc(C)c(C)c5)no4)c3CO2)cc1` (stereo not given): 1290 s.

Regarding `C#CCCOC(=O)Nc1ccccc1`, the RP-LC retention time amounted to 878 s. `O=c1[nH]c(-c2ccccc2)nc2sc(-c3ccccc3)cc12` yielded an RP-LC retention time of 980 s.

Take `CS(=O)(=O)N1CCC(C(=O)NC2CCCCC2)Oc2ccc(Cl)cc21` (stereo not given): the RP-LC retention time is 922 s. Compound `CCn1cnc(S(=O)(=O)N2CCC(C(=O)Nc3cc(C)cc(C)c3)CC2)c1` had an RP-LC retention time of 797 s. The same measure for `CCOc1ccc(-c2nc(C3CC(=O)N(c4ccc(F)c(Cl)c4)C3)no2)cc1` (stereo not given): 1170 s. The same measure for `CN1C(=O)CO[C@@H](C(=O)N2CCN(c3ccccc3)CC2)[C@@H]1c1ccccc1`: 796 s. The same measure for `CCOc1cc(=O)n2c(c1C(=O)OCc1ccc(Cl)cc1)CCCCC2`: 991 s.

Regarding `O=C(c1ccccc1OCC1CCCNC1)N1CCOCC1` (stereo not given), the RP-LC retention time stood at 576 s. In the case of `O=C([C@@H]1C[C@H](F)CN1C(=O)Nc1ccc(F)cc1)N1CCOCC1`, the RP-LC retention time amounted to 608 s. The same measure for `CCc1nc(-c2csc(S(=O)(=O)N3CCCC(C(=O)NCc4ccccn4)C3)c2)no1` (stereo not given): 681 s; for `O=C(Cc1nnc(-c2ccc3ncccc3c2)o1)NCc1ccc(F)c(Cl)c1`: 733 s; for `COc1ccc(C(=O)Nc2cccn3nc(C)nc23)cc1`: 719 s. The same measure for `Cc1ccc(S(=O)(=O)N2CCC(C(=O)NCc3csc(-c4cccs4)n3)CC2)cc1C`: 950 s; for `COc1cccc(C(=O)CSc2ccc(-n3nc(C)cc3C)nn2)c1`: 931 s. Take `CC(C)c1cc(C(=O)Nc2cc(F)cc(F)c2)nc2ccnn12`: the RP-LC retention time was 1180 s.

`Cc1ccc2c(c1)C1CC(C)(O2)N(c2cccc(C(=O)N3CCCC3)c2)C(=O)N1` (stereo not given) yielded an RP-LC retention time of 754 s. Compound `O=S(=O)(c1ccc(-c2nnc(C3CCCC3)o2)o1)N1CCN(C2CCCCC2)CC1` gave an RP-LC retention time of 696 s. Take `C[C@@H]1CN(C(=O)c2cccs2)C[C@H]1c1nc(-c2ccccc2)no1`: the RP-LC retention time stood at 965 s. `O=C(Nc1nc2c(s1)COCC2)c1cccs1` returned an RP-LC retention time of 664 s. `CCCN1C(=O)c2c(C(=O)NCc3ccc(C)cc3)ncn2CC1(C)C(=O)NC1CCCC1` (stereo not given) registered an RP-LC retention time of 848 s. The same measure for `Cc1cc(=O)n(CC(=O)Nc2cccc(C#N)c2)c(N2CCOCC2)n1`: 604 s; for `O=C(Cc1csc(NC(=O)NC2CCCCC2)n1)NCc1ccco1`: 695 s. The same measure for `CCSc1nnc(NC(=O)C2CCN(S(=O)(=O)c3cn(CC)cn3)CC2)s1`: 715 s; for `O=C(OCc1cc(-c2ccccc2)on1)c1ccc[nH]c1=O`: 656 s; for `CCOCCn1c(=O)c2c(nc3n2CCN3c2cc(Cl)ccc2OC)n(C)c1=O`: 774 s.
